The target in test [1] is herpes virus type 2 (HSV-2) DNA polymerase (Human herpesvirus 2, UniProt P89453). As to conditions: Reid, et al.; cited from earlier work.
Test [2] concerns the target human cytomegalovirus (HCMV) DNA polymerase (Human cytomegalovirus, UniProt P08546). The following applies: Reid, et al.; cited from earlier work.
In test [3] the target is T1, 9° N™ (exo-)/A485L DNA polymerase (Thermococcus sp., UniProt Q56366, A485L/D141A/E143A).
T1 construct: made in house
It counts as biochemical, Thermococcus sp. 9° N-7. As to the method: (§1) The 2X cocktail was split in half and 9° N™ (exo-)/A485L DNA polymerase or Thermo Sequenase™ was added to a final concentration of 0.04 U/μl. […] Reactions were thermal cycled as follows: • 94° C. 5 minutes • 25 cycles at: • 94° C. 30 seconds • 55° C. 30 seconds • 72° C. 30 seconds • 72° C. 7 minutes

Test [4] concerns the target T2, Vent® (exo-)/A488L DNA polymerase (Thermococcus litoralis, UniProt P30317, A488L/D141A/DEL1082-1471/DEL495-1032/E143A).
T2 construct: made in house
Format: biochemical. As to conditions: Vent (exo-)/A488L vs Vent (exo-); FIG. 6.

For test [5], the target named is human DNA polymerase alpha (Homo sapiens, UniProt P09884). The following applies: Reid, et al.; cited from earlier work.
Test [6] relates to Thermo Sequenase™ DNA polymerase. Put plainly: Titration assay of chain terminator incorporation by Thermo Sequenase. Format: biochemical. As to conditions: FIG. 9. As to the method:
Samples were then heated at 72° C. for 3 minutes and separated on a QuickPoint DNA sequencing gel (NOVEX, San Diego, Calif.) run at 1200 volts. The gel was fixed by soaking in 10% acetic acid/10% ethanol, dried, and polymerization products visualized by autoradiography.
In a related experiment dye-acyclo-CTP incorporation by the analogous […] variant was evaluated.
as §1

T1 sequence (Q56366 whole entry D141A/E143A/A485L): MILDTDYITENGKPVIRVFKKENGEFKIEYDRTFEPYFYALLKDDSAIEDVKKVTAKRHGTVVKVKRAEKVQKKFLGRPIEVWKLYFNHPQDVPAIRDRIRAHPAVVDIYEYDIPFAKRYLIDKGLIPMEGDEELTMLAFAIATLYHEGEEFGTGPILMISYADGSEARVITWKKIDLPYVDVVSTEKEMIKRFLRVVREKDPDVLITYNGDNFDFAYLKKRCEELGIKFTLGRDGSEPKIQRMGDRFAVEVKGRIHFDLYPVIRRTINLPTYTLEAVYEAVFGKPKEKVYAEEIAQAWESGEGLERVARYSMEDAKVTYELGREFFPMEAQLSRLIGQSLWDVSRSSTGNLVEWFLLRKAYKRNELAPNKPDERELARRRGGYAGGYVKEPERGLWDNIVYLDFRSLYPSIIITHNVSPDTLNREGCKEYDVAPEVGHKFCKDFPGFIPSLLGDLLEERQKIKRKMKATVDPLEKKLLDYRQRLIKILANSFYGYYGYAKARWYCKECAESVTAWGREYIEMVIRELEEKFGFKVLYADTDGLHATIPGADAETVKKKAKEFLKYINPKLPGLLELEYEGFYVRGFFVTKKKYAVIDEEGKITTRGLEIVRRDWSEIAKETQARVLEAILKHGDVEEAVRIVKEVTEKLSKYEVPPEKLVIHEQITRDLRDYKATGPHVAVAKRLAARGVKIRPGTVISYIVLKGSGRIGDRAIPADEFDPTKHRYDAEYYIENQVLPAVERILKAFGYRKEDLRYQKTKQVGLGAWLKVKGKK
Chain of human cytomegalovirus (HCMV) DNA polymerase (P08546 whole entry): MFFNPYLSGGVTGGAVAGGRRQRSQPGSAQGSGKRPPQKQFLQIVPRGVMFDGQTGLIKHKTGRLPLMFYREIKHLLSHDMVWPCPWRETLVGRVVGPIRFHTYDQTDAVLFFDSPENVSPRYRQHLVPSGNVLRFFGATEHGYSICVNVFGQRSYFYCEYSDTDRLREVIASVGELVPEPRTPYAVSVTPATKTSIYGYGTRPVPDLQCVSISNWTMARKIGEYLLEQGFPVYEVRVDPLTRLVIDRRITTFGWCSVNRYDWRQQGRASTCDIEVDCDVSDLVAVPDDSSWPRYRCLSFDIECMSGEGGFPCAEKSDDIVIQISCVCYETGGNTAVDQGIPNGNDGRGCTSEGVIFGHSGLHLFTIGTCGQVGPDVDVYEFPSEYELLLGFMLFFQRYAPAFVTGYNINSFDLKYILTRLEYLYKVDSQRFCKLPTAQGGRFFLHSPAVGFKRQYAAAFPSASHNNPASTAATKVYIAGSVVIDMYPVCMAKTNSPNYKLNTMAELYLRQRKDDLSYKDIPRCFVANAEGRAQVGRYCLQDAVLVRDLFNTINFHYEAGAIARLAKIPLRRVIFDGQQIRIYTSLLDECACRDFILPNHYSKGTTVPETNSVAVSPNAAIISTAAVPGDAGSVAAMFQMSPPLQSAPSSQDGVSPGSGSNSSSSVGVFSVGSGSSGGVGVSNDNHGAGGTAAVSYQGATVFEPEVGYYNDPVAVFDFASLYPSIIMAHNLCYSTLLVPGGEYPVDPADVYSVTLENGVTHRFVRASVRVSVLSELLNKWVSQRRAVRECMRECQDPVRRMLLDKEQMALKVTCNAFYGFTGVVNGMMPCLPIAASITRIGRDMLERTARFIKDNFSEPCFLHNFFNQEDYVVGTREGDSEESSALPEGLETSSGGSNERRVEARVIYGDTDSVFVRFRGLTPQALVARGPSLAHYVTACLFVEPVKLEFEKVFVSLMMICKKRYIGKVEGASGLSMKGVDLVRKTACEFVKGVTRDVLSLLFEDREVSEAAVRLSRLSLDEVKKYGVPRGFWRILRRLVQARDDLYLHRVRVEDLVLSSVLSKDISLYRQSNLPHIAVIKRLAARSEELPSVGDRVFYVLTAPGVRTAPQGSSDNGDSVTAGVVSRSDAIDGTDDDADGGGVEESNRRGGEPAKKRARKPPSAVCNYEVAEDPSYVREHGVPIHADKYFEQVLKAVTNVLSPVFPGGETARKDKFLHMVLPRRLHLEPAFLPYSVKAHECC
Chain of herpes virus type 2 (HSV-2) DNA polymerase (P89453 whole entry): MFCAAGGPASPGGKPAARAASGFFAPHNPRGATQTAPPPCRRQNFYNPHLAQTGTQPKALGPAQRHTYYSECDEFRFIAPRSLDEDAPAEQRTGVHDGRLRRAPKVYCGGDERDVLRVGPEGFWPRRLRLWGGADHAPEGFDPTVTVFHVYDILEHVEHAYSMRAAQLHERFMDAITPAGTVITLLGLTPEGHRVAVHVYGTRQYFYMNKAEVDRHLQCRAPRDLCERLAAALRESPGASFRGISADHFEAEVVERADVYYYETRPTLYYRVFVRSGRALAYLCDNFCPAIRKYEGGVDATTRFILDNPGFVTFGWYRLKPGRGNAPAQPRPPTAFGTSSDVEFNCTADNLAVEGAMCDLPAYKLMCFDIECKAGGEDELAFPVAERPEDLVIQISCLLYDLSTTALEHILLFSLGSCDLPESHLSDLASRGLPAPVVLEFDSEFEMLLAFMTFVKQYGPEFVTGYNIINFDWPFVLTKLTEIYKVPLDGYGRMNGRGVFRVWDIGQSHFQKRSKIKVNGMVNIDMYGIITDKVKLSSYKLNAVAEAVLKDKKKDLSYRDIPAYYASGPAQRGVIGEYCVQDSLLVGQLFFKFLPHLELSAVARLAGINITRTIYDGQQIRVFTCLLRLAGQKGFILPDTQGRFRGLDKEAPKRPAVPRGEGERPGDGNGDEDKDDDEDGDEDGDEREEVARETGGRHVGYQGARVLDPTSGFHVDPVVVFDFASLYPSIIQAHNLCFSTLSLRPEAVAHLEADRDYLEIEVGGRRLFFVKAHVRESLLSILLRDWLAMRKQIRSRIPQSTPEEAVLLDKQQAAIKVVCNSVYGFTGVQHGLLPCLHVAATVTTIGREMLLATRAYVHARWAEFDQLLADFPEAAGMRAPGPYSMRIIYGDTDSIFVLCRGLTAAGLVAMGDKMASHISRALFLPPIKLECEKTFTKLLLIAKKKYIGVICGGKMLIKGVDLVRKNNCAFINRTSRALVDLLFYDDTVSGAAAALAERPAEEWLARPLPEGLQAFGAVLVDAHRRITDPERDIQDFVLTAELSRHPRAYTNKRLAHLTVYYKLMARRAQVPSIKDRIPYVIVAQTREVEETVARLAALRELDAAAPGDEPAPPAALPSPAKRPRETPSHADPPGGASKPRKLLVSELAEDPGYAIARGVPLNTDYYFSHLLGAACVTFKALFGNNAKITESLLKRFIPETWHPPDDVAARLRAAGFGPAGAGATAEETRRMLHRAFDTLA
T2 sequence (P30317 other isoform, or with tags, fused parts or gaps D141A/E143A/A488L/DEL495-1032/DEL1082-1471): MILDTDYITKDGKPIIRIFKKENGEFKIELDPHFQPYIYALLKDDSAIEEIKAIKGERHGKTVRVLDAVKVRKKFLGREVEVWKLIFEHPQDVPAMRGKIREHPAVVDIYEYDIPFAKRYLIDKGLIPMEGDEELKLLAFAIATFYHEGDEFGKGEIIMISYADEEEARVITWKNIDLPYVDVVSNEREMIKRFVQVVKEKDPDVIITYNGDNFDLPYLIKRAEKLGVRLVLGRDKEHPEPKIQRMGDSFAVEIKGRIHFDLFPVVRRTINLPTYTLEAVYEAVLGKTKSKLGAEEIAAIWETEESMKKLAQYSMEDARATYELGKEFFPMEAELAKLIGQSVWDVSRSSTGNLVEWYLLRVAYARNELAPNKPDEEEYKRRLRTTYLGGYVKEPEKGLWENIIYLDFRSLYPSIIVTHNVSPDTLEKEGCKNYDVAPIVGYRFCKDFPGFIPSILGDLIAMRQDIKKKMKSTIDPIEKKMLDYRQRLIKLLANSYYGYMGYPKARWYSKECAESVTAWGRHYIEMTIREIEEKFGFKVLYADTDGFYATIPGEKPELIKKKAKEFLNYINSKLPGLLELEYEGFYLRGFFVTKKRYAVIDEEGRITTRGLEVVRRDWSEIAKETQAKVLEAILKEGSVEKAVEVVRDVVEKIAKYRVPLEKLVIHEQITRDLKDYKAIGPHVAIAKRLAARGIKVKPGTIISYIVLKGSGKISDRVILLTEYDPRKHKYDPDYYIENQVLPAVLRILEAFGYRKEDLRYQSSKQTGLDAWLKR

Regarding `Nc1nc2c(ncn2COCCOP(=O)(O)OP(=O)(O)OP(=O)(O)O)c(=O)[nH]1` [acyclo-GTP], the “Preference for insertion, acyclo-GTP versus ddGTP” value in test [1] and in test [2] was “preference for insertion of acyclo-GTP over ddGTP” in each case. For the same compound, the “Preference for acyclo-GTP over ddGTP” value in test [3] (9°N (exo-)/A485L, FIG. 9) is listed as “approximately 9 fold”.

Turning to `Nc1ccn([C@H]2CC[C@@H](COP(=O)(O)OP(=O)(O)OP(=O)(O)O)O2)c(=O)n1` [ddCTP], the “Enhancement of incorporation, variant compared to parental enzyme” value in test [4] is recorded as “about 10 fold”; in test [3] (9°N (exo-)/A485L vs 9°N (exo-), FIG. 6), “about 10 fold”.

For the compound `Nc1nc2c(ncn2[C@H]2CC[C@@H](COP(=O)(O)OP(=O)(O)OP(=O)(O)O)O2)c(=O)[nH]1` [ddGTP], the “Preference for insertion, ddGTP versus acyclo-GTP” value in test [5] is recorded as “strong preference”. Besides, the “Preference for ddGTP over acyclo-GTP” value in test [6] is approximately 27 fold.

Values taken from patent US20060199214A1, “Incorporation of modified nucleotides by archaeon DNA polymerases and related methods” (priority 1999, published 2006).
